Reference: patent publication US8309685B2 (Celgene Avilomics Research, Inc., priority 2007, dated 2012)
Read-outs that look alike come from different tables or passages of the source.

Key:
HCV NS3/4A protease = HCV NS3/4A protease (UniProt Q9WMX2); test: Method B: HCV Protease Assay using FRET Methodology; parameters: species or system Hepatitis C virus
Text: Method B: HCV Protease Assay using FRET Methodology
A quantitative, fluorescence resonance energy transfer (FRET)-based methodology was employed to identify HCV NS3/4A protease inhibitors. The assay employed a synthetic FRET peptide, derived from the HCV NS5A/5B cleavage site, with the HCV protease to evaluate the activity of compounds against the protease by monitoring the cleavage activity of the complex. A synthetic peptide which encompasses the NS5A-5B junction (NH2-EDVVCCSMSYK-COOH) was labeled with Dabcyl and Edans at N- and C-termini, respectively (Invitrogen, Carlsbad, Calif.). Fluorescence measurement was used to estimate the IC50 value of the test compound. […] Upon cleavage of the FRET peptide by HCV NS3/4A proteinase complex (100 ng/mL), the fluorescence is recovered and can be continuously monitored at excitation/emission=340/490 nm.

[1] = target: T1, wild type HCV NS3/4A 1b protease enzyme (Hepatitis C virus genotype 1b, UniProt P26663); test: biochemical; type: biochemical; settings: read-out: Inhibition, WT; WT enzyme, FRET assay
T1 construct: 10× stocks of NS3/4A protease enzyme from Bioenza (Mountain View, Calif.); purchased Bioenza (Mountain View, Calif.)

[2] = target: T2, A156T mutant of the HCV NS3/4A 1b protease enzyme (Hepatitis C virus genotype 1b, UniProt P26663, A1182T); test: HCV Protease FRET Assay (IC50_APP), A156T mutant; type: biochemical
T2 construct: 10× stocks of NS3/4A protease enzyme from Bioenza (Mountain View, Calif.); purchased Bioenza (Mountain View, Calif.)

[3] = target: T1, wild type HCV NS3/4A 1b protease enzyme; test: HCV Protease FRET Assay (IC50_APP), wild type; type: biochemical; settings: read-out: IC50_APP, WT; apparent IC50, wild type NS3/4A 1b
[4] = target: T3, HCV NS3/4A wild type (genotype 1b) (Hepatitis C virus genotype 1b, UniProt P26663); test: Mass spectrometric analysis (MALDI-TOF) of covalent modification, HCV wild type; type: binding; settings: 10-fold excess of compound to protein, 3 hrs
T3 construct: mass spectroscopic analysis of HCV NS3/4A wild-type protease domain; purchased Bioenza Calif
Description: Mass spectrometric analysis of HCV wild type or HCV variant C159S in the presence of test compound was performed. 100 pmols of HCV wild type (Bioenza Calif.) was incubated with compound for 1 hr and 3 hrs at 10-fold access of […] to protein. 1 ul aliquots of the samples (total volume of 4.24 ul) were diluted with 10 ul of 0.1% TFA prior to micro C4 ZipTipping directly onto the MALDI target using Sinapinic acid as the desorption matrix (10 mg/ml in 01% TFA:Acetonitrile 50:50). Analyses were performed on a Shimadzu Biotech Axima TOF^2 (Shimadzu Instruments) matrix-assisted-laser desorption/ionization Time-of-Flight (MALDI-TOF) mass spectrometer. The same procedure was carried out on 100 pmols of HCV C159S mutant of HCV protease for 3 hrs at 10-fold excess of (I-3) to protein.
As depicted in FIGS. 2, 3, 4, and 5, mass spectrometric analysis of HCV wild type or HCV mutants in the presence of test compound (I-3) was performed. […] 1 ul aliquots of the samples were diluted with 10 ul of 0.1% TFA prior to micro C4 ZipTipping directly onto the MALDI target using Sinapinic acid as the desorption matrix (10 mg/ml in 0.1% TFA:Acetonitrile 50:50).
Mass spectrometric analysis of HCV wild type (genotype 1b) in the presence of test compounds I-73 and I-75 was performed using the following protocol: HCV NS3/4A wild type (wt) was incubated for 1 hr at a 10× fold access of test compound to protein. 2 ul aliquots of the samples were diluted with 10 ul of 0.1% TFA prior to micro C4 ZipTipping directly onto the MALDI target using Sinapinic acid as the desorption matrix (10 mg/ml in 0.1% TFA:Acetonitrile 50:50). For intact protein mass measurement the instrument was set in Linear mode using a pulsed extraction setting of 24,500 and apomyoglobin as the standard to calibrate the instrument.
Mass spectrometric analysis of HCV NS3/4A genotypes 1a, 1b, 2a, and 3a in the presence of test compound I-96 was performed using the following protocol: HCV NS3/4A was incubated for 3 hr at a 10× fold access of test compound to protein. […]

[5] = apparent IC50, A156T mutant; read-out: IC50_APP, HCV A156T

C=CC(=O)NC[C@H](NC(=O)OC(C)(C)C)C(=O)N1C[C@H](Oc2cc(-c3ccccc3)nc3cc(OC)ccc23)C[C@H]1C(=O)N[C@]1(C(=O)NS(=O)(=O)c2ccccc2)C[C@H]1C=C [Compound I-3, N-[(1,1-dimethylethoxy)carbonyl]-3-[(2-propenoyl)amino]-L-alanyl-(4R)-4-[(7-methoxy-2-phenyl-4-quinolinyl)oxy]-L-prolyl-1-amino-2-ethenyl-N-(phenylsulfonyl)-(1R,2S)-cyclopropanecarboxamide]
IC50 (HCV NS3/4A protease; Enzyme/Assay: Biochemical; read-out: Inhibition, Biochemical): 10 to 100 nM | IC50 [1]: < 10 nM | IC50 [2, 5]: 1000 to 10000 nM | IC50 [3]: < 10 nM

C=C[C@@H]1C[C@]1(NC(=O)[C@@H]1C[C@@H](Oc2cc(-c3ccccc3)nc3cc(OC)ccc23)CN1C(=O)[C@H](CNC(=O)CCl)NC(=O)OC(C)(C)C)C(=O)NS(=O)(=O)c1ccccc1 [Compound I-7, N-[(1,1-dimethylethoxy)carbonyl]-3-[(chloroacetyl)amino]-L-alanyl-(4R)-4-[(7-methoxy-2-phenyl-4-quinolinyl)oxy]-L-prolyl-1-amino-2-ethenyl-N-(phenylsulfonyl)-(1R,2S)-cyclopropanecarboxamide]
IC50 (HCV NS3/4A protease; read-out: Inhibition, Biochemical; Enzyme/Assay: Biochemical): 10 to 100 nM | IC50 [1]: < 10 nM | IC50 ([2]; read-out: IC50_APP, HCV A156T; apparent IC50, A156T mutant): 100 to 1000 nM | IC50 [3]: < 10 nM

C=CC(=O)NCC(=O)N1C[C@H](Oc2cc(-c3ccccc3)nc3cc(OC)ccc23)C[C@H]1C(=O)N[C@]1(C(=O)NS(=O)(=O)c2ccccc2)C[C@H]1C=C [Compound I-27, (2S,4R)-1-(2-acrylamidoacetyl)-4-(7-methoxy-2-phenylquinolin-4-yloxy)-N-((1R,2S)-1-(phenylsulfonylcarbamoyl)-2-vinylcyclopropyl)pyrrolidine-2-carboxamide]
Covalent modification of HCV wild type by mass spectrometry [4]: near complete covalent modification | IC50 [1]: < 10 nM | IC50 [2, 5]: 100 to 1000 nM | IC50 [3]: < 10 nM
